Data on three compounds can be found in paper PMC10046377, “Inhibitors of the Oncogenic PA2G4-MYCN Protein-Protein Interface” (Cancers, 2023).

The target of this assay is T1, PA2G4 protein (Homo sapiens, UniProt Q9UQ80).
T1 sequence (Q9UQ80 1-394): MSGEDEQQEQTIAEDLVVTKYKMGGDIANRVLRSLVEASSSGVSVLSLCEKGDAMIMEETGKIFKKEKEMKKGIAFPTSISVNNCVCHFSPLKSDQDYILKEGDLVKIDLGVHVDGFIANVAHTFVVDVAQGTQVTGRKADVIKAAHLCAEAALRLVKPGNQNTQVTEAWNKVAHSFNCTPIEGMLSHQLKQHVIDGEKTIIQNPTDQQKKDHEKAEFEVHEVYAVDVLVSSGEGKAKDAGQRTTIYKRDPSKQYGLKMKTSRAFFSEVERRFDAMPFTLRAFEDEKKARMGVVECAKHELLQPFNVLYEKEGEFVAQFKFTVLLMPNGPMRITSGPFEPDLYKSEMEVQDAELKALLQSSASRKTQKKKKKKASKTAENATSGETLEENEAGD
The assay is described as follows: Surface plasmon resonance binding to recombinant PA2G4. The settings on record: SPR. The arrangement: PA2G4 protein construct was ordered from GenScript (Piscataway, NJ, USA) and cloned into a pET22b vector; host or cells: BL21 (DE3) E. coli. The protocol: PA2G4 protein construct was ordered from GenScript (Piscataway, NJ, USA) and cloned into a pET22b vector. The construct was expressed in BL21 (DE3) E. coli, which was transformed by adding 2 μL of DNA, as per the Addgene Bacterial Transformation Protocol (Addgene, Cambridge, MA, USA). A total of 250 μL of transformed cells were grown in Luria-Bertani (LB) agar, containing 100 μg/mL of ampicillin, overnight at 37 °C. Starting cultures were created by inoculating 100 mL of LB with several bacterial culture colonies, followed by an overnight shaking incubation at 125 rpm and 37 °C. The overnight culture was added (10 mL/L) to 2 L flasks of LB and incubated at 125 rpm and 37 °C until log phase growth was reached (OD600 = 0.6). Following incubation, the cell line was centrifuged at 4200 rpm for 30 min in 1 L bottles. The cell pellet was then resuspended in 25 mL of phosphate-buffered saline (PBS) and centrifuged again at 4200 rpm for 30 min.
Cell pellets were resuspended in 25 mL of Ni-IMAC buffer A (100 mM Tris (pH 8.0), 0.5 M NaCl, 1 mM TCEP), filtered through 22–25 μm Miracloth, and placed on ice. Filtered cells were lysed using the EmulsiFlex-C5 High-Pressure homogenizer (Avestin, Ottawa, ON, Canada), followed by high-speed centrifugation at 18,000 rpm for 20 min. The supernatant, containing the soluble cell lysate, was loaded onto a 5 mL His-Trap column (GE Healthcare Life Sciences, Buckinghamshire, UK) equilibrated in Ni-IMAC buffer A. An incremental gradient of Ni-IMAC buffer B (100 mM Tris pH 8.0, 0.5 M NaCl, 1 mM TCEP, and 1 M imidazole) was introduced. Eluted fractions were analysed by SDS-PAGE and pooled accordingly. Each protein sample was then loaded onto a HiPrep 26/10 Desalting column (GE Healthcare Life Sciences, Buckinghamshire, UK) and equilibrated into anion exchange buffer A (100 mM Tris pH 8.0, 50 mM NaCl, 1 mM TCEP). Samples were loaded onto the column and eluted fractions were analysed by SDS-PAGE and pooled accordingly.
Protein was loaded onto a 5 mL HiTrap Q (Sephrose-Q) anion exchange column (GE Healthcare Life Sciences, Buckinghamshire, UK) and equilibrated in anion exchange buffer A. Samples were loaded, eluted in the flow-through, and analysed using SDS-PAGE. Samples were pooled and concentrated using 10 kDa MWCO Ultra-4 centrifugal filters (Merck, Macquarie Park, NSW, Australia) and intermittent centrifugation at 4000 rpm. Protein samples were then purified using Size Exclusion Chromatography (SEC). Each sample was concentrated to […] using MWCO Ultra-4 centrifugal filters, then loaded onto a Superdex 75 16/60 SEC column (GE Healthcare Life Sciences, Buckinghamshire, UK) and equilibrated in SEC buffer (25 mM Hepes pH 7.7, 100 mM NaCl, 1 mM TCEP). Samples were eluted, analysed by SDS-PAGE, and concentrated to 10 mg/mL using 10 kDa MWCO Ultra-4 centrifugal filters, with intermitted centrifugation at 4000 rpm.
Recombinant PA2G4 was buffer exchanged into PBS buffer using an overnight dialysis at 4 °C. Protein was concentrated to 0.5 mg/mL and incubated for 3 h on ice with a 20:1 molar excess of EZ-Link Sulfo-NHS-LC-Biotin (Thermo Scientific, Melbourne, VIC, Australia). Biotinylated protein samples were isolated from excess biotin using a Superdex 200 10/300 SEC column (GE Healthcare Life Sciences, Buckinghamshire, UK). All SPR experiments were performed on a Biacore T200 instrument (GE Healthcare Life Sciences, Uppsala, Sweden), at 25 °C, in the presence of HEPES Buffered Saline (HBS) (20 mM […] (pH 7.5) 137 mM NaCl, 2.7 mM KCl, and 0.05% Tween 20). Streptavidin was coupled to a CM5 chip (GE Healthcare Life Sciences, Buckinghamshire, UK) using amine coupling. Biotinylated protein samples were then capture-coupled to the streptavidin, with flow cell 1 blocked as a reference.
Compounds were dissolved in 100% DMSO and diluted to 10 mM. […]
(In general: SPR reads the build-up and loss of mass on a sensor chip optically.)

The mark [1] stands for this setting: Biacore T200, 25 °C, biotinylated PA2G4.

Regarding `Cc1cccc(Oc2cc(N3CCC(C(=O)N[C@@H](C)CCc4ccccc4)CC3)ncn2)c1C` [#5338], the Kd (commonly the equilibrium constant for the complex coming apart) is, setting by setting: under setting [1], 13.5 µM; (recombinant PA2G4) 13.5 µM.
Take `Cc1cccc(Oc2cc(N3CCC(C(=O)NCc4cccc(Br)c4)CC3)ncn2)c1C` [#5333]: the Kd by setting is: under setting [1], 10.8 µM; (recombinant PA2G4) 10.8 µM.
With `Cc1cccc(Oc2cc(N3CCC(C(=O)NCc4cccc(C(F)(F)F)c4)CC3)ncn2)c1C` [#3567], the Kd reads like this: under setting [1], 14.9 µM; (recombinant PA2G4) 14.9 µM.
